Experimental data reported in patent publication US9138470B2, “Multi-component L2 vaccine for prevention of human papilloma virus infection” (The Johns Hopkins University, priority 2007, dated 2015).
“Also recorded” adds a separate entry of the source.

Columns and labels:
Format in all cases: in vivo
HPV16 pseudovirions = test: Cutaneous HPV challenge with HPV16 pseudovirions (luciferase reporter); details: BALB/c mice vaccinated s.c. three times, bioluminescence 3 days post-challenge
Method: (§1) Immunization of mice. All animal experimental work was done in accordance with Johns Hopkins Medical Institutions Animal Care and Use Committee guidelines. BALB/c and C57BL/6 (NCI, Frederick, Md.) wild type or MyD88 (D. Golenbock, UMass Medical Center, […], Mass.), CD40, or MHCII deficient mice (Jackson Laboratories, Bar Harbor, Me.) were used. Mice aged 4-6 wks were immunized with P25-P2C-HPV vaccine or various controls. All vaccine and control peptides were dissolved in phosphate-buffered saline (PBS). Mice received two booster immunizations at 4 wks and 8 wks after priming immunization in the same fashion and dose. (i) subcutaneous (s.c.): Each mouse was administered 20 nmols of vaccine in a total volume of 100 μL or an equivalent amount of several control preparations at the base of the tail. (ii) intranasal (i.n.): Anesthesia induction was accomplished within 3 to 5 mins using a chamber filled with 2.5% isoflurane (Baxter, Deerfield, Ill.). While anesthetized, each mouse was administered 20 nmols of lipopeptide in a total volume of 50 μL of vaccine or an equivalent amount of several control preparations via controlled micropipetting into the nares.
(§2) Cutaneous HPV challenge. […] Equal areas encompassing the site of virus inoculation were analyzed using Living Image 2.20 software (Xenogen), and background was determined by challenge with non-infectious HPV pseudovirions lacking L2.

HPV45 pseudovirions = test: Cutaneous HPV challenge with HPV45 pseudovirions (luciferase reporter); details: BALB/c mice vaccinated s.c. three times, luminescence 72 hrs post-challenge
Method: as §1, §2

HPV16 L2 17-36 = HPV16 L2 17-36 peptide ELISA of sera from immunized mice; details: mice vaccinated s.c. or i.n.; compared with saline controls
Method: as §1
Collection and quantification of HPV specific antibody responses. […] Presence of serum antibodies against HPV16 was assessed by enzyme-linked immunosorbent assays (ELISA). […]

Row | Substance | protection from cutaneous challenge with HPV16 pseudovirions (HPV16 pseudovirions) | protection from cutaneous challenge with HPV45 pseudovirions (HPV45 pseudovirions) | L2-specific antibody (immune) response by ELISA (HPV16 L2 17-36)
1 | HPV16 L1 VLP: virus-like particles of HPV16 major capsid protein L1, control vaccine | protected mice from cutaneous challenge | did not protect | –
2 | QLYKTCKQAGTCPPDIIPKV (listed as Human papillomavirus) [HPV16 L2 17-36 peptide] | failed to protect the mice | did not protect | immune responses similar to saline controls; also recorded: failed to induce an L2-specific antibody response
